# Results from patent US6090787A, “Antithrombotic agents” (Eli Lilly and Company, priority 1999, dated 2000).
# Square brackets hold non-standard residues; d marks the D form. Peptide text beside a SMILES is read from it. dPip = O=C(O)[C@H]1CCCCN1; Sar = CNCC(=O)O
# Assays:
# human plasma [1] = assay: Human plasma anticoagulation, activated partial thromboplastin time (APTT); conditions: concentration required to double the APTT, linear extrapolation
# Protocol: (§1) Dog plasma and rat plasma is obtained from conscious mixed-breed hounds (either sex, Hazelton-LRE, Kalamazoo, Mich., U.S.A.) or from anesthetized male Sprague-Dawley rats (Harlan Sprague-Dawley, Inc., Indianapolis, Ind., U.S.A.) by venipuncture into 3.8 percent citrate. Fibrinogen is prepared from in-date ACD human blood as the fraction I-2 according to previous procedures and specifications. Smith, Biochem. J., 185, 1-11 (1980); and Smith, et al., Biochemistry, 11, 2958-2967 (1972). Human fibrinogen is also purchased as 98 percent pure/plasmin free from American Diagnostica, Greenwich, Conn. Coagulation reagents ACTIN, Thromboplastin, and Human plasma are from Baxter Healthcare Corp., Dade Division, Miami, Fla. Bovine thrombin from Parke-Davis ([…], Mich.) is used for coagulation assays in plasma.
# (§2) Coagulation assay procedures are as previously described. Smith, et al., Thrombosis Research, 50, 163-174 (1988). A CoAScreener coagulation instrument (American LABor, Inc.) is used for all coagulation assay measurements. The prothrombin time (PT) is measured by adding 0.05 mL saline and 0.05 mL Thromboplastin-C reagent to 0.05 mL test plasma. The activated partial thromboplastin time (APTT) is measured by incubation of 0.05 mL test plasma with 0.05 mL Actin reagent for 120 seconds followed by 0.05 mL CaCl2 (0.02 M). The thrombin time (TT) is measured by adding 0.05 mL saline and 0.05 mL thrombin (10 NIH units/mL) to 0.05 mL test plasma. The compounds of formula I are added to human or animal plasma over a wide range of concentrations to determine prolongation effects on the APTT, PT, and TT assays. Linear extrapolations are performed to estimate the concentrations required to double the clotting time for each assay.
# human thrombin = molecular target: T1, human thrombin (Homo sapiens, UniProt P00734); assay: Inhibition of amidase activity of thrombin (Kass), chromogenic substrate; type: biochemical; conditions: apparent association constant, mean over a range of concentrations
# T1 construct: purified human thrombin, Enzyme Research Laboratories; purchased Enzyme Research Laboratories, South Bend, Indiana
# Protocol: The assay is carried out by mixing 50 μL buffer (0.03 M Tris, 0.15 M NaCl, pH 7.4) with 25 μL of bovine thrombin or human thrombin solution (0.21 mg/mL of thrombostat bovine thrombin, Parke-Davis, or purified human thrombin, Enzyme Research Laboratories, South Bend, Indiana, at about 8 NIH units/mL, in the same buffer) and 25 μL of test compound in a solvent (in 50% aqueous methanol, v:v). The 150 μL of an aqueous solution of the chromogenic substrate (at 0.25 mg/mL) are added and the rates of hydrolysis of the substrate are measured by monitoring the reactions at 405 nm for the release of p-nitroaniline. Standard curves are constructed by plotting free thrombin concentration against hydrolysis rate. The hydrolysis rates observed with test compounds are then converted to "free thrombin" values in the respective assays by use of the standard curves. The bound thrombin (bound to test compound) is calculated by subtracting the amount of free thrombin observed in each assay from the known initial amount of thrombin used in the assay. The amount of free inhibitor in each assay is calculated by subtracting the number of moles of bound thrombin from the number of moles of added inhibitor (test compound).
# The Kass value is the hypothetical equilibrium constant for the reaction between thrombin and the test compound (I). [formula]
# Kass is calculated for a range of concentrations of test compounds and the mean value is reported in units of liter per mole.
# [2] = molecular target: T2, tissue plasminogen activator (t-PA) (Homo sapiens, UniProt P00750); assay: Fibrinolytic protease selectivity, Kass, t-PA chromogenic assay; type: biochemical; conditions: apparent association constant
# T2 construct: purchased American Diagnostica, Greenwich, Conn
# Protocol: By substantially following the procedures described above for human thrombin, and using other human blood coagulation system serine proteases and proteases of the fibrinolytic system with the appropriate chromogenic substrates, identified below, selectivity of the compounds of the present invention with respect to the coagulation factor serine proteases and with respect to the fibrinolytic system serine proteases are evaluated as well as their substantial lack of interference with serine proteases of the fibrinolytic system. Thrombin inhibitors preferably should spare fibrinolysis induced by urokinase, tissue plasminogen activator (t-PA) and streptokinase. This would be important to the therapeutic use of such agents as an adjunct to streptokinase, t-PA or urokinase thrombolytic therapy and to the use of such agents as an endogenous fibrinolysis-sparing (with respect to t-PA and urokinase) antithrombotic agent. In addition to the lack of interference with the amidase activity of the fibrinolytic proteases, such fibrinolytic system sparing can be studied by the use of human plasma clots and their lysis by the respective fibrinolytic plasminogen activators.
# Human plasmin is purchased from Boehringer Mannheim, Indianapolis, Indiana; nt-PA is purchased as single chain activity reference from American Diagnostica, Greenwich, Conn.; modified-t-PA6 (mt-PA6) is prepared at Eli Lilly and Company by procedure known in the art (See, Burck, et al., J. Biol. Chem., 265, […] (1990). Plasmin chromogenic substrate H--D--Val--Leu--Lys--p--nitroanilide and tissue plasminogen activator (t-PA) substrate H--D--Ile--Pro--Arg--p--nitroanilide are purchased from Kabi Vitrum, Stockholm, Sweden.
# human plasma [3] = assay: Human plasma anticoagulation, thrombin time (TT); conditions: concentration required to double the thrombin time, linear extrapolation
# Protocol: as §1, §2
# T2 sequence (P00750 36-562): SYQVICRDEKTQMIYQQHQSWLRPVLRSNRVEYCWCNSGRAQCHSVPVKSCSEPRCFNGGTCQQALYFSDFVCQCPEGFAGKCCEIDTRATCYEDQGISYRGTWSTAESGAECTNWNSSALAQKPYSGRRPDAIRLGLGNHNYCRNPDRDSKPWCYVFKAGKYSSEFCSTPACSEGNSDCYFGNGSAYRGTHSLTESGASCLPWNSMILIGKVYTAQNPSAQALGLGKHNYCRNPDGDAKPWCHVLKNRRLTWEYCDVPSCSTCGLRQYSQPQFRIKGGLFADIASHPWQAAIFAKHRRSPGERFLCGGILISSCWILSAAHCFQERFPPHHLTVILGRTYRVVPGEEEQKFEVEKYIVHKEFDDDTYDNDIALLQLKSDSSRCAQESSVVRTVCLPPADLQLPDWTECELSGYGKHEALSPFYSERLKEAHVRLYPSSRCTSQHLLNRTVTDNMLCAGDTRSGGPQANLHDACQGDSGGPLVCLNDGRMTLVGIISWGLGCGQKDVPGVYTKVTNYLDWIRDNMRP
Enzyme Kass Human Thrombin (human thrombin) [L/mol × 10^6],Enzyme Kass t-PA [2] [L/mol × 10^6],SMILES,Human Plasma Anticoagulation 2 × Clotting time APTT (human plasma [1]),Human Plasma Anticoagulation 2 × Clotting time TT (human plasma [3]) [ng/mL]
87,0.009,"Cl.Cl.N=C(N)NCCC[C@@H](C=O)NC(=O)CN(CCc1ccccc1)C(=O)[C@H]1CCCCN1 [Example 8, D-homoprolyl-N-(2-phenylethyl)glycyl-L-argininal dihydrochloride]","6,600 ng/mL",64
22,0.0039,"CN(CC(=O)N[C@H](C=O)CCCNC(=N)N)C(=O)[C@H]1CCCCN1.Cl.Cl [Example 1, D-homoprolyl-N-methylglycyl-L-argininal dihydrochloride] (H-[dPip]-[Sar]-Arg-aldehyde)","2,800 ng/mL",160

SMILES,Enzyme Kass Human Thrombin (human thrombin) [L/mol × 10^6],Enzyme Kass t-PA [2] [L/mol × 10^6],Human Plasma Anticoagulation 2 × Clotting time APTT (human plasma [1]),Human Plasma Anticoagulation 2 × Clotting time TT (human plasma [3]) [ng/mL]
"CC(C)CCN(CC(=O)N[C@H](C=O)CCCN=C(N)N)C(=O)[C@H]1CCCCN1.Cl.Cl [Example 6, D--hPro--N(isoamyl)Gly--ArgH.2HCl]",16,0.004,"3,200 ng/mL",170
